Results on 1 compound are retold here after patent publication US20130252983A1, “ACTIVATING PHOSPHORYLATION SITE ON GLUTAMINASE C” (CORNELL UNIVERSITY, priority 2010, published 2013).

The test system of one experiment is HMECs. Nature of the experiment: Growth of normal human mammary epithelial cells. Type of experiment: cell-based. The note with it: 10 μM, MEGM complete medium, 6 days.
Experiment [1] relates to GA activity of SKBR3 cells. Nature of the experiment: GA activity in mitochondrial fractions of treated SKBR3 cells. It counts as cell-based, human. The conditions noted are these: 10 μM, 48 hours. As to the method:
100%=620 moles of glutamine hydrolyzed per minute per mole of enzyme. Data represent the average of 3 experiments (±s.d.). […] Following precipitation of the beads and re-suspension, the samples were analyzed by Western blotting with anti-V5 antibody. […] Data represent the average of 3 experiments (±s.d.). […] Data represent the average of 3 experiments (±s.d.). […] Data represent the average of 3 experiments (±s.d.). FIG. 3E NIH 3T3 cells transiently expressing Dbl were assayed for focus formation in the presence of 10 μM 968 alone or together with 7 mM dimethyl α-ketoglutarate. […] 100%=680 nM glutamine hydrolyzed per minute per 10^5 cells. Data are the average of 3 experiments (±s.d.). […] 100%=750 nM glutamine hydrolyzed per minute per 10^5 cells. Data represent the average of 3 experiments (±s.d.).
FIGS. 4A-E illustrate the role of glutaminase C activity in cellular transformation. […] Data represent the average of 3 experiments (±s.d.). […] Data represent the average of 3 experiments (±s.d.). […] 100% represents the activity measured in untreated Dbl-transformed cells. The data represent the average of 2 experiments. […] 100% represents the activity measured in untreated SKBR3 cells. The data represent the average of 2 experiments. […] Data represent the average of 3 experiments (±s.d.).
FIGS. 11A-E illustrate the effects of different treatments on GA activity. […] The addition of Pi stimulated the GA activity in control 3T3 cells, Dbl-expressing cells, and Cdc42(F28L)-expressing cells by ˜6-fold, 2-fold, and 3-fold, respectively. 100% represents the Pi-stimulated activity measured for Dbl-transformed cells that were not treated with 968. Data is the average of 3 experiments (±s.d.). […] The addition of Pi stimulated the GA activity of HMECs, MDA-MB231 cells, and SKBR3 cells by ˜5-fold, 2-fold, and 1.4-fold, respectively. […] The data are plotted as the percentage of GA activity measured for untreated SKBR3 cells and represent the average of 2 experiments. […] 100% represents the Pi-stimulated activity measured for untreated Dbl-transformed cells. […]

For the next experiment, the target named is T1, GAC (S103A) (Mus musculus, UniProt D3Z7P3, S103A).
T1 construct: expressed in transfected cells; host or cells: Dbl-transformed NIH 3T3 cells
T1 sequence (D3Z7P3 55-603 isoform D3Z7P3-2 S103A): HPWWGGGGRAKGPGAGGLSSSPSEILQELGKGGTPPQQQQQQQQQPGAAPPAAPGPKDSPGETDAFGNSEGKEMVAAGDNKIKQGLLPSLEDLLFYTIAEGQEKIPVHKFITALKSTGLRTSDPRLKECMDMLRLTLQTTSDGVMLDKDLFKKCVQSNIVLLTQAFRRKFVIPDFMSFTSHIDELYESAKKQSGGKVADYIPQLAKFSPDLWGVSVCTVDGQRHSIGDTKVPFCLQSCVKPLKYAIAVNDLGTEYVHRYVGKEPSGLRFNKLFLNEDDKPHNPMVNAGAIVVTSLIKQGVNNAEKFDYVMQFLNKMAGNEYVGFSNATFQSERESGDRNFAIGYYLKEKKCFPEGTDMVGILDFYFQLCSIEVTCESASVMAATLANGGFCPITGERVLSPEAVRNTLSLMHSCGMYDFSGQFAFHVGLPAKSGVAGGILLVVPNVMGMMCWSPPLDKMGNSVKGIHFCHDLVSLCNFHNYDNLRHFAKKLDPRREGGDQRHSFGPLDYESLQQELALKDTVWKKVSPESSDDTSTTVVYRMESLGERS
As to the kind of experiment: Glutaminase activity of immunoprecipitated GAC (S103A) from treated Dbl-transformed cells. It counts as cell-based. The note with it: 10 μM, 48 hours. As to the method:
Next the effect of the substitution of an alanine for a serine at amino acid 103 on the enzymatic activity of GAC was examined, as well as its sensitivity to the small molecule, 968. […] Following transfection, the cells were treated for 48 hours with 968 (10 μM) and then harvested. The different GAC proteins were then isolated by immunoprecipitation and assayed for their glutaminase activity in the absence (i.e., basal activity) and presence of phosphate (FIG. 24). […] Initially, the high glutaminase activity of the GAC (S103A) mutant was surprising as it had been predicted that this phospho-defective mutant should have a reduced enzymatic activity. […] When this hydrogen bond is broken, either by mutating the serine to an alanine or upon the phosphorylation of this serine residue, GAC transitions to an active conformation. […] Thus, Serine 103 plays a critical role in the regulation of the glutaminase activity of GAC.

In the case of `CN(C)c1ccc(C2Nc3ccc4ccccc4c3C3=C2C(=O)CC(C)(C)C3)cc1Br` (stereo not drawn) [Compound 968, 5-[3-bromo-4-(dimethylamino)phenyl]-2,2-dimethyl-2,3,5,6-tetrahydrobenzo[a]], in the experiment with HMECs, the “effect on growth of HMECs” value was “little effect”. Further, the “basal GA activity” value in experiment [1] is recorded as “sensitive to 968”. For the same compound, at GAC (S103A), the “glutaminase activity of GAC (S103A)” value is reported as “not affected”.
